Experimental data from US20090186838A1, “Amphotericin Derivatives” (Eidgenössische Technische Hochschule Zürich, priority 2006, published 2009).
Values after ≈ are worked out from the molar mass of the structure shown. Read-outs that look alike come from different tables or passages of the source.

Test system: Saccharomyces cerevisiae wild type BY4741
Test: MIC determination in Saccharomyces cerevisiae wild type BY4741
Format: cell-based
Procedure: In Vitro Antifungal Activity. MIC values for various strains were determined in accordance with the standard protocol from the National Committee of Clinical Laboratory Standards but using YEPD liquid medium instead of RPMI-1640 medium (National Committee of Clinical Laboratory Standards (Reference Method for Broth Dilution Antifungal Susceptibility Testing of Yeast, M27-A2, Approved Standard-Second Edition, Volume 22, Number 15, 1995). AmB was used as a reference. The strains were cultivated overnight in 5 mL YEPD liquid medium at 30 to 37° C. (30° C. for the strain BY4741; 37° C. for the strain DSY1764) with constant shaking. The saturated cultures were diluted to an ODB600 of 0.1 (3×10P^7 cells/mL). Using 24 wells plate, each well was prepared by adding 1% (12 μL) of DMSO solution of the tested polyene macrolide with 1% (12 μL) yeast cells solution and completed with YEPD (1.176 mL). The plates were sealed with Parafilm and then incubated for 18 to 36 hours at 30 to 37° C. (18 hours at 30° C. for the strain BY4741; 36 hours at 37° C. for the strain DSY1764). The optical density was read at 600 nm using 1.5 mL cuvettes. The MIC value was defined as the drug concentration needed to inhibit growth, less than 5% compared to a drug-free culture.
MIC values of various polyene macrolides of the invention in Saccharomyces cerevisiae wild type BY4741, a derivative of S288C, (with AmB as a reference) were determined as described hereinabove.
Based on the remarkable performance observed with the Diamine-AmB conjugate similar modifications of the aminosugar moiety were made on other polyene macrolides, such as for example Nystatin (1b) and Pimaricin (1c). The antifungal activity of these nystatin and pimaricin conjugates bearing two aminopropyl side chains was measured using Saccharomyces cerevisiae wild type BY4741.

[1] = Saccharomyces cerevisiae wild type BY4741, YEPD liquid medium, 18 hours at 30° C., read-out: MIC
[2] = Table 5, Saccharomyces cerevisiae wild type BY4741, read-out: MIC
[3] = Saccharomyces cerevisiae wild type BY4741

MIC [2] | SMILES | MIC (Saccharomyces cerevisiae, 18 h) | further results
 | C[C@@H]1[C@H](O)[C@@H](C)/C=C/C=C/C=C/C=C/C=C/C=C/C=C/[C@H](O[C@@H]2O[C@H](C)[C@@H](O)[C@H](N3CCN(C(=O)CCCCCNC(=O)C(N)CCCCN)CC3)[C@@H]2O)CC2O[C@](O)(C[C@@H](O)C[C@@H](O)[C@H](O)CC[C@@H](O)C[C@@H](O)CC(=O)O[C@H]1C)C[C@H](O)[C@H]2C(=O)O (stereo partly drawn) [compound 7, 2,6-Diamino-N-[6-oxo-6-(piperazin-1-yl)-hexyl]-hexanamide-AmB] |  | MIC [1]: 0.1 µM (≈ 0.123 µg/mL)
 | C[C@@H]1[C@H](O)[C@@H](C)/C=C/C=C/C=C/C=C/C=C/C=C/C=C/[C@H](OC2O[C@H](C)[C@@H](O)[C@H](N(CCCO)CCCO)[C@@H]2O)CC2O[C@](O)(C[C@@H](O)C[C@@H](O)[C@H](O)CC[C@@H](O)C[C@@H](O)CC(=O)O[C@H]1C)C[C@H](O)[C@H]2C(=O)O (stereo partly drawn) [compound 4, N,N-Di-(3-hydroxypropyl)-AmB] | 0.5 µM (≈ 0.52 µg/mL) | 
 | C[C@@H]1[C@H](O)[C@@H](C)/C=C/C=C/C=C/C=C/C=C/C=C/C=C/[C@H](O[C@@H]2O[C@H](C)[C@@H](O)[C@H](N(CCNC(=N)N)CCNC(=N)N)[C@@H]2O)CC2O[C@](O)(C[C@@H](O)C[C@@H](O)[C@H](O)CC[C@@H](O)C[C@@H](O)CC(=O)O[C@H]1C)C[C@H](O)[C@H]2C(=O)O [compound 6, N,N-Di-(2-ethylguanidine)-AmB] | 0.1 µM (≈ 0.109 µg/mL) | 
 | C[C@@H]1[C@H](O)[C@@H](C)/C=C/C=C/C=C/C=C/C=C/C=C/C=C/[C@H](O[C@@H]2O[C@H](C)[C@@H](O)[C@H](N(CC(N)CCCCN)CC(N)CCCCN)[C@@H]2O)CC2O[C@](O)(C[C@@H](O)C[C@@H](O)[C@H](O)CC[C@@H](O)C[C@@H](O)CC(=O)O[C@H]1C)C[C@H](O)[C@H]2C(=O)O (stereo partly drawn) [compound 5, N,N-Di-(2,6-diaminohexyl)-AmB] | 0.08 µM (≈ 0.0922 µg/mL) | 
 | C[C@@H]1[C@H](O)[C@@H](C)/C=C/C=C/C=C/C=C/C=C/C=C/C=C/[C@H](O[C@@H]2O[C@H](C)[C@@H](O)[C@H](N3CCN(C(=O)CCCCCNC(=O)C(N)CCCCNC(=N)N)CC3)[C@@H]2O)CC2O[C@](O)(C[C@@H](O)C[C@@H](O)[C@H](O)CC[C@@H](O)C[C@@H](O)CC(=O)O[C@H]1C)C[C@H](O)[C@H]2C(=O)O (stereo partly drawn) [compound 8, 2-Amino-6-guanidine-N-[6-oxo-6-(piperazin-1-yl)-hexyl]-hexanamide-AmB] |  | MIC [1]: 0.1 µM (≈ 0.128 µg/mL)
 | C[C@@H]1[C@H](O)[C@@H](C)/C=C/C=C/C=C/C=C/C=C/C=C/C=C/[C@H](OC2O[C@H](C)[C@@H](O)[C@H](N(CCN)CCN)[C@@H]2O)CC2O[C@](O)(C[C@@H](O)C[C@@H](O)[C@H](O)CC[C@@H](O)C[C@@H](O)CC(=O)O[C@H]1C)C[C@H](O)[C@H]2C(=O)O (stereo partly drawn) [compound 2, N,N-Di-(2-aminoethyl)-AmB] | 0.25 µM (≈ 0.253 µg/mL) | 
4 µM (≈ 2.66 µg/mL) | C[C@@H]1C/C=C/C=C/C=C/C=C/[C@H](O[C@@H]2O[C@H](C)[C@@H](O)[C@H](N)[C@@H]2O)C[C@@H]2O[C@](O)(C[C@@H](O)C[C@H]3O[C@@H]3/C=C/C(=O)O1)C[C@H](O)[C@H]2C(=O)O [1c (Pimaricin), Pimaricin, reference compound] |  | 
0.3 µM (≈ 0.234 µg/mL) | C[C@@H]1C/C=C/C=C/C=C/C=C/[C@H](O[C@@H]2O[C@H](C)[C@@H](O)[C@H](N(CCCN)CCCN)[C@@H]2O)C[C@@H]2O[C@](O)(C[C@@H](O)C[C@H]3O[C@@H]3/C=C/C(=O)O1)C[C@H](O)[C@H]2C(=O)O [compound 18, N,N-Di-(3-aminopropyl)-Pimaricin] |  | antifungal activity compared with the native compounds 1b and 1c [3]: significantly more active
 | C[C@@H]1[C@H](O)[C@@H](C)/C=C/C=C/CC/C=C/C=C/C=C/C=C/[C@H](O[C@@H]2O[C@H](C)[C@@H](O)[C@H](N(CCCN)CCCN)[C@@H]2O)CC2O[C@](O)(C[C@@H](O)[C@H](O)CC[C@@H](O)C[C@@H](O)C[C@@H](O)CC(=O)O[C@H]1C)C[C@H](O)[C@H]2C(=O)O [compound 17, N,N-Di-(3-aminopropyl)-Nystatin] |  | MIC (Saccharomyces cerevisiae): 0.05 µM (≈ 0.052 µg/mL); antifungal activity compared with the native compounds 1b and 1c [3]: significantly more active

SMILES | MIC [2] | MIC (Saccharomyces cerevisiae, 18 h) | further results
C[C@@H]1[C@H](O)[C@@H](C)/C=C/C=C/CC/C=C/C=C/C=C/C=C/C(O[C@H]2O[C@H](C)[C@@H](O)[C@H](N)[C@@H]2O)CC2O[C@](O)(CC(O)C(O)CCC(O)CC(O)CC(O)CC(=O)O[C@H]1C)CC(O)C2C(=O)O (stereo partly drawn) [1b (Nystatin), Nystatin, reference compound] | 3.0 µM (≈ 2.78 µg/mL) |  | 
